# Where two headings read alike, the source gives them in different places.
# Legend:
# [1] = DPPH* Stable Free Radical Scavenging Assay
# Protocol: Cucurbitacin antioxidant activity was studied first by the DPPH* Stable Free Radical Scavenging Assay (Cotelle et al., Free radical Biology & Medicine 20(1): 35-43, 1996). Experimental conditions were optimized on the standard compound ascorbic acid. Data indicated 30% activity at 50 μM concentration, and 100% activity at 100 μM for ascorbic acid. While the original assay required 10 minutes incubation time for the reaction to occur, this time was increased up to 30 minutes in case cucurbitacin were reacting slower than other reagents.
# HSC-T6 cells [2] = assay: Serum-driven HSC-T6 proliferation, experiment 1 (4 h challenge, two days drug-free growth); assay type: cell-based, rat; settings: for EC50: HSC-T6, 4 h challenge, then two days drug-free media
# Protocol: The proliferation effect of serum on HSC-T6 cells was optimized and cucurbitacin antiproliferative activity was measured. Serum contains a large number of growth factors, hormones and other nutrients, which help cells to grow and multiply. Several trials were conducted. In experiment 1, cells were challenged with cucurbitacin analogs for 4 h and then cells were grown in drug-free media for two additional days.
# HSC-T6 cells were photographed under phase-contrast microscope to record possible changes in cell morphology during experiment 1. […] We are monitoring specifically the effect of compound on the cells, cell recovery after 4 h challenge, and relative cell proliferation. […] Live cells are quantified at the end of the assay (row 4) with MTT dye.
# (§1) We established several experimental conditions such as 4 hours of incubation time with cucurbitacin, and 2 day cell incubation with fresh media after challenging with cucurbitacin (Exp. 1). Other experiments involved addition of cucurbitacin for 24 hours over starved cells (Exp. 2) vs. proliferating cells (Exp. 3), and one day incubation of cells with fresh media after challenge. […] Because of that, the challenge time was increased to 24 hours (Exp. 2 and 3).
# We modified this approach. Our assay included a second control (ZC) supplemented with no serum intended to measure cucurbitacin anti-proliferation effect relative to the number of cells generated during challenge instead of the total number of cells present in each well.
# HepG2 cells [3] = assay: cells
# Description: Experimental conditions were standardized on silybin. […]
# The ratio of IC50-to-EC50 (hereafter T/A) is also indicated in this table, which gives the margin between toxic and cytoprotective concentrations.
# HSC-T6 cells [4] = assay: Serum-driven HSC-T6 proliferation, experiment 3 (24 h, proliferating cells); assay type: cell-based, rat; settings: HSC-T6, 24 h, read-out: Experiment 3 EC50 (A)
# Protocol: (§2) To overcome this problem, the amount of incubation time was increased to 24 h, and cucurbitacin activity measured on starved (Exp. 2) or proliferative (Exp. 3) cells (Table 8). Cells turned quiescent when serum was not supplemented for one day (Exp. 2). Activity of a few compounds was monitored on quiescent cells, and their activity compared to the ones measured on proliferating cells (Exp. 3).
# as §1, with “challenge. The 4 hour incubation period with cucurbitacin triggered anti-proliferation effect. This effect, however, was hindered by a second cycle of cell proliferation during the two-day cell growth period (see silybin, E and I glucosides, and for I-nPr).” for “challenge.”
# (§3) In experiment 3, only 40% of the cells divided. The ratio of EC50 values for exp. 2 and exp. 3 varied between 3.6 and 12.7. This may indicate differential cytotoxicity of silybin and cucurbitacin analogs over quiescent and active stellate cells. In other words, compounds show higher anti-proliferative activity on active cells than on quiescent cells.
# HSC-T6 cells [5] = assay: Serum-driven HSC-T6 proliferation, experiment 2 (24 h, starved/quiescent cells); assay type: cell-based, rat; settings: HSC-T6, 24 h, read-out: Experiment 2 EC50
# Protocol: as §2
# as §1, with “challenge. The 4 hour incubation period with cucurbitacin triggered anti-proliferation effect. This effect, however, was hindered by a second cycle of cell proliferation during the two-day cell growth period (see silybin, E and I glucosides, and for I-nPr).” for “challenge.”
# as §3
# HSC-T6 cells [6] = assay: Cytotoxicity on HSC-T6 cells (experiment 3); assay type: cell-based, rat; settings: for IC50: read-out: Experiment 3 IC50 (T)
# Description: Cytotoxicity of all cucurbitacin analogs was additionally measured in experiment 3 (Table 8).
# [7] = standard compounds; gradient elution and correlation with published data; cited from earlier work
# [8] = Chromatographic hydrophobicity index (CHI) by RP-HPLC in buffered acetonitrile; assay type: physicochemical; design: key: CHI = φ0 (isocratic hydrophobicity index), = A·tR + B; ACN % scale; settings: for CHIACN (b): standard compounds, isochratic and gradient elution of standard mixture; for CHIACN1: buffered acetonitrile pH 7.0, Alltima C18 250 mm, Eq. (2) from isocratic φ0; for CHIACN2: buffered acetonitrile pH 7.0, Eq. (3) calibrated against published CHI
# Protocol: (§4) We used Dynamax liquid chromatograph (Varian Chromatography Systems) with PDA-2 photodiode array UV detector, controlled by the Dynamax PC Chromatography Data System (v. 1.9) software and Dynamax dual pump solvent delivery system, model SD-200. […] Cucurbitacins analytical separation was optimized on Alltima C18 (Alltech; 250 mm×4.6 mm, 5 μm) HPLC column, at gradient elution in acetonitrile (ACN, 30-70% ACN in 57 min), and in MeOH (60-75% MeOH in 50 min). Cucurbitacins stock concentration of 10^−2M in DMSO:ethanol (1:1) was standardized against pure cucurbitacin I (Indofine Chemical Company, Hillsborough, N.J.) by analytical HPLC means. Compounds CHI was measured in both ACN, by using Alltima C18 column, and in MeOH, by using Econosil C18 column (Alltech; 150 mm×4.6 mm, 5 μm). Analytical separations were conducted at a flow rate of 1 ml/min. The aqueous phase was buffered for the CHI measurement. For this purpose, solid ammonium acetate (Fisher Sci. Co., Fair Lawn, N.J.) was dissolved in deionized distilled water at 50 mM final concentration and its pH adjusted to 7.0.
# All standard compounds were purchased from Acros (Acros Organics, NJ). The chromatographic lipophilicity or hydrophobicity was determined applying Valkó's technique (Valkó et al., Anal. Chem. 69 (1997) 2022, the entire disclosure of which is herein incorporated by reference). A standard mixture of seven compounds was prepared in solution: theophylline (compound 19), benzimidazole (compound 20), acetophenone (compound 21), indole (compound 22), propiophenone (compound 23), butyrophenone (compound 24), and valerophenone (compound 25). […] The retention factor, log k=log((tR-t0)/t0), was calculated for each analyte from five good injections of […] sample. The dead time (t0) was measured by injecting NaNO3 together with the sample. Then, the log k values were plotted against isocratic ACN concentrations to establish the linear regression equations for each analyte. From each straight line the isocratic hydrophobicity index was computed, φ0=(intercept/slope). Further, the calibration mixture was injected at fast gradient elution, 0-22 min 0-100% ACN, and three additional minutes at 100% ACN. The φ0 values for the test compounds were plotted against gradient retention time and the linear equation determined from the following equation: φ0=CHI=AtR+B (1)
# The gradient elution conditions were similar to the one from the first approach.
# (§5) Cucurbitacins lipophilicity was measured by RP-HPLC. […] Due to its high viscosity, aqueous MeOH required a shorter column than the one applied for ACN. First, the C18 columns were calibrated against a standard mixture, and the relationships established between the fast gradient tR and φ0 or published CHI (see Eqs. (2)-(4) from Table 2). Second, cucurbitacins were injected at fast gradient elution under similar conditions, and their CHI calculated (Table 4) from Eqs. (2)-(4). Eqs.
# [9] = Chromatographic hydrophobicity index (CHI) by RP-HPLC in buffered methanol; assay type: physicochemical; settings: for CHIMeOH (b): standard compounds, isochratic and gradient elution of standard mixture; for CHIMeOH: buffered methanol pH 7.0, Econosil C18 150 mm, Eq. (4)
# Protocol: as §4
# A standard mixture of 10 compounds including 19-21, 23-27, aniline (compound 28) and bromobenzene (compound 29), dissolved in MeOH, was injected at five isochratic elution, at 40, 45, 50, 55, and 60% MeOH. Then the mixture was injected at fast gradient elution to establish the correlation from Eq. (1). The fast linear gradient elution was optimized for 30-100% MeOH in aqueous buffer with 10 min runtime.
# as §5
# [10] = system: lipid peroxidation of microsomal suspension; assay: Microsomal Lipid Peroxidation Assay; assay type: biochemical; settings: at 0.1 mM, both chemical and enzymatic assays
# Protocol: Cucurbitacin anti-lipid peroxidation was studied by the Microsomal Lipid Peroxidation Assay (Engineer et al., Biochemical Pharmacology 38(8): 1279-1285, 1989). Lipid peroxidation of microsomal suspension was induced both enzymatically and chemically and validated on the standard compound quercetin. […] Activity of 3 cucurbitacin analogs, B, E, and E-Me-ether was monitored at 0.1 mM indicating no inhibition in either the chemical or enzymatic assay.
# HepG2 cells [11] = assay: Cucurbitacins cytotoxicity on HepG2 cells (MTT viability assay); assay type: cell-based, human
# Protocol: HepG2 (human hepatocellular carcinoma, ATCC) cells were grown in EMEM (Gibco, Grand Island, N.Y.) supplemented with 10% fetal bovine serum (FBS), and 1% penicillin/fungizone mixture (Gibco). Thabrew's optimized procedure (Thabrew et al., J. Pharm. Pharmcol. 49 (1994) 1442, the entire disclosure of which is herein incorporated by reference) was followed. Cells were batch cultured for 10 days, then seeded at concentration of 30,000 cells/well in fresh media in 96-well microtiter plastic plates at 37° C. for a day. Then cells were exposed to different concentrations of cucurbitacins at final volume of 100 μl/well. Five-fold serial dilution of compounds was carried out in the plate for five consecutive wells. After 24 h of incubation with chemicals, live cells were visualized using the MTT viability assay (Promega, Madison, Wis.). The absorbance was measured at 570 nm. Negative (without cells) and positive (without test chemicals) controls were also incubated with each plate. […] At least three reproducible experiments were performed per compound with three replicate wells per concentration.
# Cells were challenged with cu-curbitacins at various concentrations for a day and then live cells quantified with MTT dye. This period of time measures exclusively compounds cytotoxicity, while longer incubation time may lead to interference from metabolites.
# [12] = read-out: EC50 cytoprotection, Table 7, HepG2 against CCl4 toxicity, estimated
smiles,measurement,setting,value
O=C1O[C@H]([C@@H](O)CO)C(O)=C1O [ascorbic acid],DPPH activity,[1]; at 50 μM,30%
same,DPPH activity,[1]; at 100 μM,100%
"COc1cc(C2Oc3cc([C@H]4Oc5cc(O)cc(O)c5C(=O)[C@@H]4O)ccc3OC2CO)ccc1O (some centres unmarked) [Silybin, reference compound]",Experiment 1 anti-proliferation activity reached,HSC-T6 cells [2]; EC50 could not be estimated,< 50%
same,Experiment 1 anti-proliferation activity,HSC-T6 cells [2]; measured at 100 μM,˜20%^a^
same,cell growth with compound alone,"HepG2 cells [3]; HepG2, 14 to 200 μM, absence of CCl4",up to 125%
same,concentration giving complete protection from CCl4,"HepG2 cells [3]; HepG2, CCl4 4.5×10^−3 M",higher than 100 μM
same,EC50,"HepG2 cells [3]; Homo sapiens, HepG2, read-out: EC50 cytoprotection",45 µM
same,cytoprotection attained,HepG2 cells [3]; text b199,100%
same,EC50,HSC-T6 cells [4]; Rattus norvegicus,18.8 µM
same,EC50,HSC-T6 cells [5]; Rattus norvegicus,68 µM
same,Experiment 3 IC50 (T),HSC-T6 cells [6],non toxic
"CCCCC(=O)c1ccccc1 [Valerophenone (25), valerophenone, reference compound]",CHIACN (c),[7],97.67
same,CHIACN (b),[8],86.66 ± 0.08
same,CHIMeOH (b),[9],73.05 + 0.12
"c1ccc2[nH]cnc2c1 [Benzimidazole (20), benzimidazole, reference compound]",CHIACN (c),[7],30.71
same,CHIACN (b),[8],43.18 ± 0.12
same,CHIMeOH (b),[9],41.07 ± 0.04
"CCC(=O)c1ccccc1 [Propiophenone (23), propiophenone, reference compound]",CHIACN (c),[7],78.41
same,CHIACN (b),[8],71.72 + 0.15
same,CHIMeOH (b),[9],60.41 + 0.04
"O=c1c(O)c(-c2ccc(O)c(O)c2)oc2cc(O)cc(O)c12 [quercetin, reference compound]",inhibition of lipid peroxidation,[10],100%
"CCCC(=O)c1ccccc1 [Butyrophenone (24), butyrophenone, reference compound]",CHIACN (c),[7],88.49
same,CHIACN (b),[8],79.32 ± 0.14
same,CHIMeOH (b),[9],66.79 ± 0.05
CCOC1=CC2C(=CCC3C2(C)C(=O)CC2(C)C(C(C)(O)C(=O)C=CC(C)(C)O)C(O)CC32C)C(C)(C)C1=O (centres unmarked) [I-Et],EC50,HSC-T6 cells [2],7.95 µM
same,EC50,HSC-T6 cells [4]; proliferating cells,0.34 µM
same,CHIACN1,[8],69.99
same,CHIACN2,[8],73.94
same,EC50,HSC-T6 cells [5]; starved (quiescent) cells,1.4 µM
same,IC50,HSC-T6 cells [6],3.5 µM
same,CHIMeOH,[9],69.61
COC1=CC2C(=CCC3C2(C)C(=O)CC2(C)C(C(C)(O)C(=O)CCC(C)(C)O)C(O)CC32C)C(C)(C)C1=O [L-Me],EC50,HSC-T6 cells [2],10.8 µM
same,EC50,HepG2 cells [3]; [12],5 µM
same,EC50,HSC-T6 cells [4]; proliferating cells,0.18 µM
same,CHIACN1,[8],64.84
same,CHIACN2,[8],65.95
same,EC50,HSC-T6 cells [5]; starved (quiescent) cells,1 µM
same,IC50,HSC-T6 cells [6],6.7 µM
same,CHIMeOH,[9],66.58
"Cn1c(=O)c2[nH]cnc2n(C)c1=O [Theophylline (19), theophylline, reference compound]",CHIACN (c),[7],15.76
same,CHIACN (b),[8],32.63 ± 0.07
same,CHIMeOH (b),[9],25.76 ± 0.05
"CC(=O)c1ccccc1 [Acetophenone (21), acetophenone, reference compound]",CHIACN (c),[7],64.90
same,CHIACN (b),[8],61.93 ± 0.05
same,CHIMeOH (b),[9],52.47 ± 0.05
COC1=CC2C(=CCC3C2(C)C(=O)CC2(C)C(C(C)(O)C(=O)C=CC(C)(C)O)C(O)CC32C)C(C)(C)C1=O (centres unmarked) [I-Me],IC50,"HepG2 cells [11]; Table 4, 24 h incubation, MTT",15 µM
same,IC50,HepG2 cells [11]; Table 5,15 ± 5.6 µM
same,IC50,HepG2 cells [11]; Table 7,15 µM
same,EC50,HSC-T6 cells [2],3.4 µM
same,EC50,HepG2 cells [3]; [12],5.3 µM
same,EC50,HSC-T6 cells [4]; proliferating cells,0.11 µM
same,CHIACN1,[8],64.84
same,CHIACN2,[8],65.95
same,EC50,HSC-T6 cells [5]; starved (quiescent) cells,1.4 µM
same,IC50,HSC-T6 cells [6],6.4 µM
same,CHIMeOH,[9],66.58

# Reference: patent US20070049538A1, “METHODS FOR USING CUCURBITACIN COMPOUNDS” (SOUTH DAKOTA STATE UNIVERSITY, priority 2005, published 2007)
